# Key:
# [1] = target: ALK^G1202R (Homo sapiens, UniProt Q9UM73, G1202R); assay: Assay of activity on ALK kinase; format: biochemical; settings: kinase inhibition
# Method: (§1) Assay of activity on ALK kinase
# (§2) (1) A compound stock solution was prepared;
# (§3) (2) The compound stock solution was diluted 3× to obtain a compound dilution;
# (§4) (5) 5 μl of the 2× kinase working solution was added to the reaction plate, centrifuged at 1,000 rpm for 1 min, and incubated at 25° C. for 15 min;
# (§5) (7) 5 μl of the TK-substrate-biotin and ATP (the mixture prepared in step (6)) was added to initiate the reaction;
# (§6) (8) The mixture was centrifuged at 1,000 g for 30 s; the plate was sealed, and incubated at 25° C. for 60 min;
# (§7) (11) The mixture was centrifuged at 1,000 g for 1 min, and incubated at 25° C. for 60 min;
# (§8) Formula of inhibition rate (%): […]
# (§9) The nonlinear regression curve (dose response-variable slope) between the value of inhibition rate (%) and the logarithm of compound concentration was fitted with graphpad prism 8.0, the effect dose curve of compound was drawn, and the IC50 value was calculated.
# (§10) Y=Bottom+(Top−Bottom)/(1+10^((LogIC50−X)*Hill Slope))
# (§11) X-axis: logarithm of compound concentration; Y axis: inhibition rate ([…])
# [2] = target: ALK (Homo sapiens, UniProt Q9UM73); assay: Assay of activity on ALK kinase; format: biochemical; settings: kinase inhibition
# Method: as §1, §2, §3, §4, §5, §6, §7, §8, §9, §10, §11
# [3] = target: Ba/F3(EGFR^L858R/T790M/C797S) cells (Homo sapiens, UniProt P00533, T790M/C797S/L858R, cells depend on it); assay: Assay of activity on Ba/F3 cells (CTG, 72 h); format: cell-based; settings: read-out: IC50 (nM) Ba/F3 (EGFR^L858R/T790M/C797S)
# Ba/F3(EGFR^L858R/T790M/C797S) cells, sequence (P00533 whole entry T790M/C797S/L858R): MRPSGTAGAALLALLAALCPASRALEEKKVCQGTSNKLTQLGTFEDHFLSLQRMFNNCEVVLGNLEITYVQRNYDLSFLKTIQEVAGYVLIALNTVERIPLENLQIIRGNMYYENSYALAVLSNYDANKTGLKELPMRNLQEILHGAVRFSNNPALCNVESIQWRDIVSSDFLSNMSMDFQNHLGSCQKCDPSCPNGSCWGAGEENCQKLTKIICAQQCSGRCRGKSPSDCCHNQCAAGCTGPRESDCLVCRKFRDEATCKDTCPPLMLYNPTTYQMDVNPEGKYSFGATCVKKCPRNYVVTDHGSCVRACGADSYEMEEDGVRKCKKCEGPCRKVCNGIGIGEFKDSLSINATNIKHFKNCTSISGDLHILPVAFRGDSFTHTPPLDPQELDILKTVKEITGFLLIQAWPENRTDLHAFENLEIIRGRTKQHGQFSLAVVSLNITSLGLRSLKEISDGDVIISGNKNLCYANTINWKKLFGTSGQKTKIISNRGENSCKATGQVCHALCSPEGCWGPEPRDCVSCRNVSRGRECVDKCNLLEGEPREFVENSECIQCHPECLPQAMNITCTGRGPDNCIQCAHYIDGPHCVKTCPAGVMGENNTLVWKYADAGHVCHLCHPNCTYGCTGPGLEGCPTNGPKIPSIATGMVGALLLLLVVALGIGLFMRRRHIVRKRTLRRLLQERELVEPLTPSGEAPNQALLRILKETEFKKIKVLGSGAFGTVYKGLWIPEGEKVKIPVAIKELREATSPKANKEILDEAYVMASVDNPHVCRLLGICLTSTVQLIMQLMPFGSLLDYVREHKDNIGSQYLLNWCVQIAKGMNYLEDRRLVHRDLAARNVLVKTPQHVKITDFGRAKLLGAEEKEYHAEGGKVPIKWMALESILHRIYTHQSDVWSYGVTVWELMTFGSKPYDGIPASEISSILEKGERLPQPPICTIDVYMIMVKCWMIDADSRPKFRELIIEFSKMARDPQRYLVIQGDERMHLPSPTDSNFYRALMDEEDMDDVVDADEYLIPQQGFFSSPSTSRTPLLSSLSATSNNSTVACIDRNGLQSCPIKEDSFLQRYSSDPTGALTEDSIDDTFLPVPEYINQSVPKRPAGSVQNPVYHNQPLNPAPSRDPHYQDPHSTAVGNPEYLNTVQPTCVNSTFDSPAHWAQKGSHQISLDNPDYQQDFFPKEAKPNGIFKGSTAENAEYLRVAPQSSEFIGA
# Outline: (§12)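 Ba/F3 cells dependent on each EGFR triple mutant were exposed to 3-fold compound dilutions for 72 h at 37° C, 5% CO2, with CellTiter-Glo luminescence as the read-out.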
# [4] = target: EGFR^L858R/T790M/C797S (Homo sapiens, UniProt P00533, C797S/L858R/T790M); assay: EGFR inhibitory activity assay (TK-substrate-biotin/ATP, 665/615 ratio); format: biochemical; settings: kinase inhibition
# EGFR^L858R/T790M/C797S, sequence (P00533 25-1210 T790M/C797S/L858R): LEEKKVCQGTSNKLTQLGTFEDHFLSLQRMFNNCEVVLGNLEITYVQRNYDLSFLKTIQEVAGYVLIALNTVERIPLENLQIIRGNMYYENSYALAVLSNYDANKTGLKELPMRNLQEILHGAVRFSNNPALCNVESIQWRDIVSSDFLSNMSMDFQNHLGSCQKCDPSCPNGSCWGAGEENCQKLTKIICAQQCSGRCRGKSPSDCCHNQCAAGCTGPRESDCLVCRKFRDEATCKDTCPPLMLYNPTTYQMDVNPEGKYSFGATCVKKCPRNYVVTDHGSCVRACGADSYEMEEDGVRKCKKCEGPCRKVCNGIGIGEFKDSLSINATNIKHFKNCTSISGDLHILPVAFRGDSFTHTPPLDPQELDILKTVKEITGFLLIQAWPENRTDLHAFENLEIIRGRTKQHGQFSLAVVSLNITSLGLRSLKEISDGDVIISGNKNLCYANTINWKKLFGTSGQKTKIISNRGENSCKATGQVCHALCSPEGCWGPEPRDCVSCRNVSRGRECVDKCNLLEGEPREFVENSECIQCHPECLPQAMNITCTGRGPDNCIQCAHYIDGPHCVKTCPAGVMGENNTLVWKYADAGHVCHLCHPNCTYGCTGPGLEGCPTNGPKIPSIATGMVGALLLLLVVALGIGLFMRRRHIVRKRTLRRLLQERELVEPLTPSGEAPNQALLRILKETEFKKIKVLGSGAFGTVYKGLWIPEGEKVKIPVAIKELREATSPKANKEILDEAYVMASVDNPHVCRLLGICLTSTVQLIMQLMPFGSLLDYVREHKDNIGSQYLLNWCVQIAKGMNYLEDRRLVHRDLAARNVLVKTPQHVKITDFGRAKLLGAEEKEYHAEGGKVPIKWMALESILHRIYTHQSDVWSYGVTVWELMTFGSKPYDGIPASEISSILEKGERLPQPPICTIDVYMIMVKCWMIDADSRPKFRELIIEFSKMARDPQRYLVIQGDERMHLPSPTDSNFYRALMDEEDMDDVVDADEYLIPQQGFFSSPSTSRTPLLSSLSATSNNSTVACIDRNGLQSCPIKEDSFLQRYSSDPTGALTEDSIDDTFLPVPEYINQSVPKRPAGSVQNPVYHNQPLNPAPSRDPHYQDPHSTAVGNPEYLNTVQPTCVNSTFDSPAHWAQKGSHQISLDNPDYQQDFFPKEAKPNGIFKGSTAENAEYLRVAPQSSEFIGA
# Method: EGFR Inhibitory Activity Assay
# (1) A compound stock solution was prepared and diluted 3× to obtain a compound dilution; 10 nL of the compound dilution was transferred to a 384-well plate (784075, Greiner) by Echo 550;
# (2) The plate was sealed, and centrifuged at 1,000 g for 1 min;
# (4) 5 μl of the 2×EGFR protein working solution was added to the 384-well plate from step (2), centrifuged at 1,000 g for 30 s, and allowed to stand at room temperature (mixed thoroughly) for 10 min;
# (6) 5 µL of the TK-substrate-biotin and ATP (the mixture prepared in step (5)) was added to the 384-well plate from step (4) to initiate the reaction;
# (7) The mixture was centrifuged at 1,000 g for 30 s; the plate was sealed, and allowed to stand (and reacted) at room temperature for 40 min;
# (8) 4×Sa-XL 665 and TK-antibody-Cryptate were prepared with detection buffer;
# (9) 5 µL of the Sa-XL 665 and 5 µL of the TK-antibody-Cryptate were added successively to the 384-well plate from step (7);
# (10) The mixture was centrifuged at 1,000 g for 30 s, and allowed to stand (reacted) at room temperature for 1 h;
# (11) The fluorescence values were read at 615 nm and 665 nm by enzyme labeling instrument (PerkinElmer, 74785).
# The ratio (665/615) of each well was calculated.
# as §8
# Ratiocmpd: Ratio (665/615) value of assay compound.
# Ratiopositive: Average ratio (665/615) value of positive control.
# Ratiovehicle: Average ratio (665/615) value of negative control.
# as §9
# [5] = target: T1, Ba/F3(EML4-ALK) cells (Homo sapiens, UniProt Q9UM73); assay: Assay of activity on Ba/F3(EML4-ALK) cells (CTG, 72 h); format: cell-based; settings: read-out: IC50 (nM) Ba/F3(EML4-ALK)
# T1 construct: fused on or other part: Q9HC35 (Echinoderm microtubule-associated protein-like 4)
# Method: Assay of activity on Ba/F3(EML4-ALK) cells
# (1) Ba/F3(EML4-ALK) cells were cultured according to the requirements of ATCC, incubated in an incubator at 37° C. and 5% CO2, and analyzed by index; cells with viability of >90% can be used in the assay, and cells were seeded in a 384-well plate (PerkinElmer, 6007680) with 700 cells/well, 30 μl/well.
# (2) A compound stock solution was prepared, and diluted 3× to obtain a compound dilution; 30 nL of the serial dilution was added to a 384-well plate (784075, Greiner) by Echo 550, and cells were incubated in an incubator at 37° C. and 5% CO2 for 72 h.
# (3) 30 μL of CTG was added to each well, and the 384-well plate was shaken on a Plate shaker (QILINBEIER, QB-9002); the 384-well plate was incubated in the dark at 37° C. and 5% CO2 for 30 min, and the chemiluminescence value was read by Envision (PerkinElmer, EnVision 2104).
# The percent inhibition rate (% inhibition) was calculated by the formula below
# LUMcmpd: Luminescence value of assay compound.
# LUMpositive: Average LUM value of positive drug at a concentration of 10 μM.
# LUM^vehicle: Average LUM value of negative control group without drug treatment.
# as §9
# Y=Bottom+(Top−Bottom)/(1+10^((LogIC50−X)*HillSlope))
# X-axis: logarithm of compound concentration; Y axis: inhibition rate (% inhibition).
# [6] = target: Ba/F3(EGFR^Del19/T790M/C797S) cells (Homo sapiens, UniProt P00533, DEL746-750/T790M/C797S, cells depend on it); assay: Assay of activity on Ba/F3 cells (CTG, 72 h); format: cell-based; settings: read-out: IC50 (nM) Ba/F3 (EGFR^Del19/T790M/C797S)
# Ba/F3(EGFR^Del19/T790M/C797S) cells, sequence (P00533 with tags, fused parts or gaps DEL746-750/T790M/C797S): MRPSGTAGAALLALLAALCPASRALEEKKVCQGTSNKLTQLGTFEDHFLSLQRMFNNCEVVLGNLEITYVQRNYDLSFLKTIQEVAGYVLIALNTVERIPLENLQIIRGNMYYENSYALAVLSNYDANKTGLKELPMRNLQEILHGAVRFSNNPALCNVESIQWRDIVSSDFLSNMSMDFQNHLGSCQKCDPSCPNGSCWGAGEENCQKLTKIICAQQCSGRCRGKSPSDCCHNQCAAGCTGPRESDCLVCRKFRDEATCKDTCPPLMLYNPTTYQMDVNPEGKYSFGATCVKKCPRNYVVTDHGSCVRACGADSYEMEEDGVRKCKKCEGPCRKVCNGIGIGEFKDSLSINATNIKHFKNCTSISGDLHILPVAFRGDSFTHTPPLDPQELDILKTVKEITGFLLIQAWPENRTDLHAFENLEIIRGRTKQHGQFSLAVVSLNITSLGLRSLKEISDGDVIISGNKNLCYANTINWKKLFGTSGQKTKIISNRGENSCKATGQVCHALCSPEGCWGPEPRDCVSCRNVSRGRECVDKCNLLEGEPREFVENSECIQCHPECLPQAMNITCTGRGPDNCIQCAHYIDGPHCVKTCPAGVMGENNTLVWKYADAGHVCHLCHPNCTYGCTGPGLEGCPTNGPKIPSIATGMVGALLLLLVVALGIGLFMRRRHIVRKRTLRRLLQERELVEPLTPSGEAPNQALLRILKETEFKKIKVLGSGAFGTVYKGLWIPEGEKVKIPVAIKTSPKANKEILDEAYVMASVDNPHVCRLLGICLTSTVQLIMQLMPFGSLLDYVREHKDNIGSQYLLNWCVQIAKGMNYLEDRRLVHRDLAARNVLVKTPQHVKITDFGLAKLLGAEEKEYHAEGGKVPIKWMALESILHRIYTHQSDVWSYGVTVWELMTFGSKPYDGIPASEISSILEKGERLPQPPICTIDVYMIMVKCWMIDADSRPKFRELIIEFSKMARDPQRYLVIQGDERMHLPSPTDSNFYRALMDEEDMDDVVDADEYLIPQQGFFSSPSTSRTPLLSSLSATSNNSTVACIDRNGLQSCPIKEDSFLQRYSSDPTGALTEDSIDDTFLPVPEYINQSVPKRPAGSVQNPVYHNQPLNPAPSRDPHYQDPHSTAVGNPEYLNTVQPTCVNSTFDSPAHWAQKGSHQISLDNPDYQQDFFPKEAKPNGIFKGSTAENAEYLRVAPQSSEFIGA
# Outline: as §12
SMILES,IC50 [1] [nM],IC50 [2] [nM],GI50 [3] [nM],IC50 [4] [nM],GI50 [5] [nM],GI50 [6] [nM]
"COc1cc(N2CCC(N3CCN(C(=O)CC4(CSCC(=O)Nc5cccc6c5C(=O)N(C5CCC(=O)NC5=O)C6=O)CC4)CC3)CC2)ccc1Nc1ncc(Cl)c(Nc2ccccc2P(C)(C)=O)n1 (centres unmarked) [Compound C103, 2-(((1-(2-(4-(1-(4-((5-chloro-4-((2-(dimethylphosphoryl)phenyl)amino)pyrimidin-2-yl)amino)-3-methoxyphenyl)piperidin-4-yl)piperazin-1-yl)-2-oxoethyl)cyclopropyl)methyl)thio)—N-(2-(2,6-dioxopiperidin-3-yl)-1,3-dioxoisoindolin-4-yl)acetamide]",> 300,1 to 100,–,201 to 300,–,–
"COc1cc(N2CCC(N3CCN(CCCCCC#Cc4cccc5c4CN(C4CCC(=O)NC4=O)C5=O)CC3)CC2)ccc1Nc1ncc(Cl)c(Nc2ccccc2P(C)(C)=O)n1 (centres unmarked) [Compound C1, 3-(4-(7-(4-(1-(4-((5-chloro-4-((2-(dimethylphosphoryl)phenyl)amino)pyrimidin-2-yl)amino)-3-methoxyphenyl)piperidin-4-yl)piperazin-1-yl)hept-1-yn-1-yl)-1-oxoisoindolin-2-yl)piperidine-2,6-dione]",–,1 to 100,1 to 100,1 to 100,1 to 100,–
"COc1cc(N2CCC(N3CCN(C(=O)C(C)(C)COC(=O)COc4cccc5c4C(=O)N(C4CCC(=O)NC4=O)C5=O)CC3)CC2)ccc1Nc1ncc(Cl)c(Nc2ccccc2P(C)(C)=O)n1 (centres unmarked) [Compound C6, 2-((2-(2,6-dioxopiperidin-3-yl)-1,3-dioxoisoindolin-4-yl)oxy)acetic acid 3-(4-(1-(4-((5-Chloro-4-((2-(dimethylphosphoryl)phenyl)amino)pyrimidin-2-yl)amino)-3-methoxyphenyl)piperidin-4-yl)piperazin-1-yl)-2,2-dimethyl-3-oxopropyl ester]",1 to 100,1 to 100,201 to 300,101 to 200,–,–
"COc1cc(N2CCC3(CCN(CCCCCCCOc4cccc5c4C(=O)N(C4CCC(=O)NC4=O)C5=O)CC3)CC2)c(C)cc1Nc1ncc(Br)c(Nc2ccc3nccnc3c2P(C)(C)=O)n1 (centres unmarked) [Compound C47, 4-((7-(9-(4-((5-bromo-4-((5-(dimethylphosphoryl)quinoxalin-6-yl)amino)pyrimidin-2-yl)amino)-5-methoxy-2-methylphenyl)-3,9-diazaspiro[5.5]undecan-3-yl)heptyl)oxy)-2-(2,6-dioxopiperidin-3-yl)isoindoline-1,3-dione]",–,–,101 to 200,–,101 to 200,101 to 200
"COc1cc(N2CCC(N3CCN(CCCCCCCOc4cccc5c4C(=O)N(C4CCC(=O)NC4=O)C5=O)CC3)CC2)c(C)cc1Nc1ncc(Br)c(Nc2ccc3nccnc3c2P(C)(C)=O)n1 (centres unmarked) [Compound C158, 4-((7-(4-(1-(4-((5-bromo-4-((5-(dimethylphosphoryl)quinoxalin-6-yl)amino)pyrimidin-2-yl)amino)-5-methoxy-2-methylphenyl)piperidin-4-yl)piperazin-1-yl)heptyl)oxy)-2-(2,6-dioxopiperidin-3-yl)isoindoline-1,3-dione]",–,–,101 to 200,–,201 to 300,1 to 100
"COc1cc(N2CCC(N3CCN(CCCCCCCOc4cccc5c4CN(C4CCC(=O)NC4=O)C5=O)CC3)CC2)c(C)cc1Nc1ncc(Br)c(Nc2ccc3nccnc3c2P(C)(C)=O)n1 (centres unmarked) [Compound C214, 3-(4-((7-(4-(1-(4-((5-bromo-4-((5-(dimethylphosphoryl)quinoxalin-6-yl)amino)pyrimidin-2-yl)amino)-5-methoxy-2-methylphenyl)piperidin-4-yl)piperazin-1-yl)heptyl)oxy)-1-oxoisoindolin-2-yl)piperidine-2,6-dione]",–,–,1 to 100,–,1 to 100,1 to 100

# Next, values leading:
IC50 [1] [nM],IC50 [2] [nM],GI50 [3] [nM],IC50 [4] [nM],GI50 [5] [nM],GI50 [6] [nM],SMILES
101 to 200,1 to 100,101 to 200,101 to 200,–,–,"COc1cc(N2CCC(N3CCN(CC(=O)N4CCC(CCOc5cccc6c5C(=O)N(C5CCC(=O)NC5=O)C6=O)CC4)CC3)CC2)ccc1Nc1ncc(Cl)c(Nc2ccccc2P(C)(C)=O)n1 (centres unmarked) [Compound C4, 4-(2-(1-(2-(4-(1-(4-((5-chloro-4-((2-(dimethylphosphoryl)phenyl)amino)pyrimidin-2-yl)amino)-3-methoxyphenyl)piperidin-4-yl)piperazin-1-yl)acetyl)piperidin-4-yl)ethoxy)-2-(2,6-dioxopiperidin-3-yl)isoindoline-1,3-dione]"
1 to 100,1 to 100,> 300,1 to 100,–,–,"COc1cc(N2CCC(N3CCN(CC(=O)N4CC(Oc5cccc6c5C(=O)N(C5CCC(=O)NC5=O)C6=O)C4)CC3)CC2)ccc1Nc1ncc(Cl)c(Nc2ccccc2P(C)(C)=O)n1 (centres unmarked) [Compound C93, 4-((1-(2-(4-(1-(4-((5-chloro-4-((2-(dimethylphosphoryl)phenyl)amino)pyrimidin-2-yl)amino)-3-methoxyphenyl)piperidin-4-yl)piperazin-1-yl)acetyl)azetidin-3-yl)oxy)-2-(2,6-dioxopiperidin-3-yl)isoindoline-1,3-dione]"
1 to 100,1 to 100,> 300,1 to 100,–,–,"COc1cc(N2CCC(N3CCN(CC(=O)N4CC(COc5cccc6c5C(=O)N(C5CCC(=O)NC5=O)C6=O)C4)CC3)CC2)ccc1Nc1ncc(Cl)c(Nc2ccccc2P(C)(C)=O)n1 (centres unmarked) [Compound C94, 4-((1-(2-(4-(1-(4-((5-chloro-4-((2-(dimethylphosphoryl)phenyl)amino)pyrimidin-2-yl)amino)-3-methoxyphenyl)piperidin-4-yl)piperazin-1-yl)acetyl)azetidin-3-yl)methoxy)-2-(2,6-dioxopiperidin-3-yl)isoindoline-1,3-dione]"
–,–,–,1 to 100,1 to 100,1 to 100,"[2H]C([2H])(CCCCCCOc1cccc2c1C(=O)N(C1CCC(=O)NC1=O)C2=O)N1CCN(C2CCN(c3ccc(Nc4ncc(Cl)c(Nc5ccccc5P(C)(C)=O)n4)c(OC)c3)CC2)CC1 (centres unmarked) [Compound C164, 4-((7-(4-(1-(4-((5-chloro-4-((2-(dimethylphosphoryl)phenyl)amino)pyrimidin-2-yl)amino)-3-methoxyphenyl)piperidin-4-yl)piperazin-1-yl)heptyl-7,7-dideuterium)oxy)-2-(2,6-dioxopiperidin-3-yl)isoindoline-1,3-dione]"
